This is an account of results in patent EP3820512B1, “IMMUNOMODULATING COMPOSITIONS COMPRISING OLIGOSACCHARIDE DERIVATIVES” (priority 2018, dated 2020).

The target in one series is T1, TLR2 (Homo sapiens, UniProt O60603).
T1 construct: endogenous in cells; host or cells: THP-1 monocyte cells stimulated with PMA
Kind of series: TLR2 activity in PMA-stimulated THP-1 monocyte cells, ELISA of cell lysate. Particulars: THP-1 cells. In kind it is cell-based. The method, then:
THP-1 monocyte cells (1×10^5) were stimulated with 200nM of PMA for 48h and treated with different concentrations of test compounds. The TLR2 activity was measured after 24 h from the cell lysate using ELISA.

Series [1] deals with normal lung epithelial cells (AT-1). In kind it is cell-based, human. The conditions noted are these: 1 mM and 2 mM, 48h, trypan blue. The procedure: The cells were treated with compounds and incubated for 48h.
In another series the target is TLR4 (Homo sapiens, UniProt O00206). Kind of series: TLR4 inhibitory and activating activity in THP-1 cells at low and high concentrations. In kind it is cell-based. Also on record: endogenous in cells; host or cells: THP-1 (human monocytic) cells. Particulars: for % activation over control TLR4 / % inhibition over control TLR4: THP-1 cells.
The test system of series [2] is THP-1 (human monocytic) cells. Kind of series: Cytokine response (IL-1β, TNF-α, IL-10) of THP-1 cells treated with compounds. In kind it is cell-based. Particulars: 100-200 µM. The method, then: When THP-1 (human monocytic) cells were treated with 100-200 µM of compounds 8, 14, 17, 23, 29, and 32, they produced an increased IL-1β and TNF-α response, decreased anti-inflammatory cytokine IL-10 (FIG. 4).

The subject of series [3] is hyperoxia induced BPD in mouse pups. Kind of series: Hyperoxia-exposed BPD mouse model (newborn pups). In kind it is in vivo. The source says: Neonatal mice and humans undergo similar stages of lung development but differ with respect to the duration of each stage and its temporal relationship to gestational age. The lungs of the mouse born at term are in the saccular stage and are surfactant sufficient; this can be considered somewhat akin to a human preterm neonate in the same stage of lung development that has been exposed to a full complement of antenatal steroids (which is known to enhance surfactant production). In terms of mimicking the human condition, the most successful hyperoxia models are those that limit exposure to hyperoxia to the saccular stage of pulmonary development. The mouse BPD model involves exposing newborn mice (postnatal day 1 or PN1) to 100% oxygen till PN4 followed by recovery in room air (RA) for another 10 days.
After the recovery period, their lungs were harvested and processed for quantitative PCR, western blotting, histopathology and ELISA.
After the recovery period, their lungs were harvested and processed for quantitative PCR, western blotting and histopathology and ELISA.
BPD is characterized by large simplified alveoli, inflammation, increased cell death, decreased cell proliferation, dysmorphic capillary configuration, and variable interstitial cellularity and/or fibroproliferation. […] This is determined by measuring the alveolar chord length, septal thickness and radial alveolar count (RAC). In BPD, the alveolar area increases which is characterized by increase in the diameter of the alveolar sacs, the septa become thickened (thus interfering in gaseous exchange) and the RAC, a parameter used to assess the complexity of terminal respiratory unit by pulmonologists, decreases as a result of arrested lung development.

Another series deals with hPBMC. Kind of series: Cytotoxicity in hPBMC, MTT cell proliferation kit. The conditions noted are these: 0.1, 1.0, 10, 100 and 1000 µM, 24h. In kind it is cell-based, human. The procedure:
The cells were treated with compounds and incubated for 24h. Cell viability was assessed using MTT cell proliferation kit (Promega).
In general terms: Tetrazolium assays rely on reduction of a dye to a coloured formazan, in cell work by metabolically active cells.

For series [4], the system named is human peripheral blood monocytes. Kind of series: IL-10 production in human peripheral blood monocytes. In kind it is cell-based. Particulars: after 48 h.
A further series deals with HUVECs. Kind of series: Cytotoxicity in HUVECs, MTT cell proliferation kit. In kind it is cell-based, human. Particulars: 100 µM, 24h. The procedure:
Selected TLR2/4 antagonist compounds 2, 6, 7, 8, 14, 17 and 32 were evaluated for cytotoxicity in HUVECs at 100 µM concentration. The cells were treated with compounds and incubated for 24h. Cell viability was assessed using MTT cell proliferation kit (Promega). All the compounds were not toxic to HUVECs (FIG. 15).

For series [5], the system named is VEGF induced tube formation in HUVECs. Kind of series: Anti-angiogenic activity, Tube Formation kit, VEGF induced. In kind it is cell-based, human. Particulars: VEGF 100ng/mL. The procedure:
Selected TLR2/4 antagonist compounds 2, 6, 7, 8, 14, 17 and 32 were evaluated for anti-angiogenic activity using the Tube Formation kit (Cat#3470-096-K). VEGF (100ng/mL) was used as positive control. These compounds have potential applications in diseases associated with pathological angiogenesis such as solid tumor, […], diabetic retinopathy as well as AMD.

Series [6] relates to P. aeruginosa (ATCC-10145 GFP) infected skin wounds. Kind of series: Murine study of skin wound infection. In kind it is in vivo, C57BL6 mice. The method, then:
Five groups of C57BL/6 mice (8-10 weeks old, n = 4) were wounded on the dorsal surface. 25µl containing 10^6 CFU/mL P. aeruginosa in a PBS suspension were pipetted onto the wound and allowed to absorb for at least 3 min. […] Subsequently and for the next 13 days, infected wounds were treated each alternate day with colistin, or with test compounds.
Along with that less focal inflammation is observed in compound treated groups vs PA group.

T1 sequence (O60603 21-784): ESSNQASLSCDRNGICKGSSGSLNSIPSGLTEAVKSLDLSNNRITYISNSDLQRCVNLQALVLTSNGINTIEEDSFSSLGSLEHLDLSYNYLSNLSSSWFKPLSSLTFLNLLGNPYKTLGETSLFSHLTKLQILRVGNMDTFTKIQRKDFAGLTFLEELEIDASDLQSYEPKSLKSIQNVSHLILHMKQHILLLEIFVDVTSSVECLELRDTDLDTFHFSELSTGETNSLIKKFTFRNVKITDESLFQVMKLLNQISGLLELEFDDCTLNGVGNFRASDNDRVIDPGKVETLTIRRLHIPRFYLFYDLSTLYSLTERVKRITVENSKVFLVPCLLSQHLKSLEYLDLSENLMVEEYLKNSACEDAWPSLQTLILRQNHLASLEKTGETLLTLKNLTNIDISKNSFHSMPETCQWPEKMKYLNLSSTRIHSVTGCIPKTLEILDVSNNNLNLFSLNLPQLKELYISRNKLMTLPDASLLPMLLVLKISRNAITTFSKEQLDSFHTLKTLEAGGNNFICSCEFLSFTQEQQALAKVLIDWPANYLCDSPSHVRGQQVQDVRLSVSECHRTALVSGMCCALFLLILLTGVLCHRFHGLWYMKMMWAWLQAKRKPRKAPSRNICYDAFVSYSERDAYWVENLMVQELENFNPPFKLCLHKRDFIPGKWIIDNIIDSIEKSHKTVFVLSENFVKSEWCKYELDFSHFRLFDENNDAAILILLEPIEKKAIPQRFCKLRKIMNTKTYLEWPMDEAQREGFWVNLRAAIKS
Sequence of TLR4 (O00206 24-839): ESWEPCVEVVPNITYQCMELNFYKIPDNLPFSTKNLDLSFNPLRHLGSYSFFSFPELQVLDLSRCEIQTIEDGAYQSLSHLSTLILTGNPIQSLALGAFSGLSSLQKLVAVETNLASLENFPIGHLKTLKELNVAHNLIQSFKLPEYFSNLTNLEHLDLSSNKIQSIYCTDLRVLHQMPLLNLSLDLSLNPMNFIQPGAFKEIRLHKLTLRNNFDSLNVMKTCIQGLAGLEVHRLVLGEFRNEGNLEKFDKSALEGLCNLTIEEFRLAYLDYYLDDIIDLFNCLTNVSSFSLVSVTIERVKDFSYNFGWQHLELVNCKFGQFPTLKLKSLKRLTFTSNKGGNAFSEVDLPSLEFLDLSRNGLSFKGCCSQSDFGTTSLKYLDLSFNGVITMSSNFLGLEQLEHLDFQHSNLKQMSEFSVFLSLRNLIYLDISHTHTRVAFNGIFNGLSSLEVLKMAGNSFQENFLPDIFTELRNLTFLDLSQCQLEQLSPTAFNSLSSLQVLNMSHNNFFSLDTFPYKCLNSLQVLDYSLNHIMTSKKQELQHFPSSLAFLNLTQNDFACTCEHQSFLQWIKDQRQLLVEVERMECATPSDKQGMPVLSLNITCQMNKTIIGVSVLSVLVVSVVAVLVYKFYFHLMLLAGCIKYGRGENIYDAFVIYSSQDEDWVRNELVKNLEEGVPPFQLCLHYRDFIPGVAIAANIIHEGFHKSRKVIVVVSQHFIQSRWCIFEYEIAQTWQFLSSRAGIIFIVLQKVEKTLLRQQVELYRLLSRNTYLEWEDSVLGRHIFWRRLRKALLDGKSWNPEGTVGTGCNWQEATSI
Sequence of TLR4 (Q9Y6Y9 17-160 partner limits assumed): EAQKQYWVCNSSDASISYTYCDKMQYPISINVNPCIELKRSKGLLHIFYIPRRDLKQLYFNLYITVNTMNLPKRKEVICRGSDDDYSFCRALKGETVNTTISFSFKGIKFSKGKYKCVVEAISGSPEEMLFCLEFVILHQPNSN

With `CC(=O)NC1[C@H](Oc2ccc3c(C)cc(=O)oc3c2)O[C@H](CO)[C@@H](O)[C@@H]1O` (single isomer, unassigned) [Compound 29], the “% activation over control TLR2” value on TLR2 (Concentration 1-10 µM) is on record as “++ (++ means that the % of inhibition or activation is in the range of 25-75%)”. In addition, the “% activation over control TLR2” value on TLR2 (Concentration 75-100 µM) is recorded as “+ (+ means that the % of inhibition or activation is in the range of 15-25%)”. For the same compound, the “cytotoxicity in normal lung epithelial cells (AT-1)” value in series [1] was “not toxic”. The “% activation over control TLR4” value at TLR4 (Concentration 75-100 µM) was “+ (+ means that the % of inhibition or activation is in the range of 15-25%)”. Further, in [2], the IL-1β response entry is on record as “increased”, the TNF-α response result is “increased” and the “anti-inflammatory cytokine IL-10” value was “decreased”.

In the case of `CC(=O)NC1[C@H](Oc2ccc(B3OC(C)(C)C(C)(C)O3)cc2)O[C@H](CO)[C@@H](O)[C@@H]1O` (single isomer, unassigned) [Compound 32, p-Pinacoloneboronatephenyl 2-acetamido-2-deoxy-β-D-glucopyranoside], the “% inhibition over control TLR2” value was “+++ (+++ means that the % of inhibition or activation is in the range of 75-95%)” at TLR2 (Concentration 1-10 µM) and “+ (+ means that the % of inhibition or activation is in the range of 15-25%)” at TLR2 (Concentration 75-100 µM). The “TLR4 inhibition in vivo” value in series [3] (neonatal pups with BPD) is “inhibit”. The lung architecture entry in series [3] (saline (IV) and nanosuspension (IN) formulation) is reported as “restored”. Besides, in the series with hPBMC, the “cytotoxicity in hPBMC (cell viability)” value is “not toxic”. Moreover, the IL-10 production result is “increase” in series [4] (0.1-1.0 µM) and “decrease” in [4] (10-100 µM). In addition, the “cytotoxicity in HUVECs (cell viability)” value in the series with HUVECs was “not toxic”. The “% inhibition over control TLR4” value on TLR4 (Concentration 1-10 µM) and on TLR4 (Concentration 75-100 µM) was “+++ (+++ means that the % of inhibition or activation is in the range of 75-95%)” each time. The TLR4 modulatory activity result on TLR4 (summary in words) is “concentration dependent TLR4 modulatory activity”. Further, the TLR2/4 antagonist activity result on TLR4 (summary in words, as shown in Table-1 (FIG. 1), TLR2 and TLR4) is “potent TLR2/4 antagonists”. The IL-1β response result in series [2] is recorded as “increased”. The TNF-α response result in [2] was “increased”. Besides, the “anti-inflammatory cytokine IL-10” value in series [2] is reported as “decreased”. Further, in [5], the “VEGF induced tube formation” value is reported as “significantly decreased”.

Consider `CC(=O)N[C@H]1[C@H](Oc2ccc3nonc3c2)O[C@H](CO)[C@@H](O)[C@H]1O` (stereo in doubt) [Compound 17, N-((2S,3R,4S,5S,6R)-2-(benzo[c][1,2,5]oxadiazol-5-yloxy)-4,5-dihydroxy-6-(hydroxymethyl)tetrahydro-2H-pyran-3-yl)acetamide], for which the “% inhibition over control TLR2” value on TLR2 (Concentration 1-10 µM) was “++ (++ means that the % of inhibition or activation is in the range of 25-75%)”. In addition, the “% inhibition over control TLR2” value at TLR2 (Concentration 75-100 µM) is “+++ (+++ means that the % of inhibition or activation is in the range of 75-95%)”. Also, the “cytotoxicity in hPBMC (cell viability)” value in the series with hPBMC is “not toxic”. The “cytotoxicity in HUVECs (cell viability)” value with HUVECs was “not toxic”. Besides, the “% activation over control TLR4” value on TLR4 (Concentration 75-100 µM) is “++ (++ means that the % of inhibition or activation is in the range of 25-75%)”. Also, in series [2], the IL-1β response result is recorded as “increased”, the TNF-α response entry is listed as “increased” and the “anti-inflammatory cytokine IL-10” value is recorded as “decreased”. The “VEGF induced tube formation” value in series [5] is given as “significantly decreased”.

As for `CC(=O)O[C@H]1C(=O)[C@@]2(C)[C@H]([C@H](OC(=O)c3ccccc3)[C@]3(O)C[C@H](OC(=O)[C@H](O)[C@@H](NC(=O)c4ccccc4)c4ccccc4)C(C)=C1C3(C)C)[C@]1(OC(C)=O)CO[C@@H]1C[C@@H]2O` [Taxol, reference compound], in series [1], the “cytotoxicity in normal lung epithelial cells (AT-1)” value is “toxic”.

Take colistin [reference compound]: in series [6] (H&E histology, day 13 post-injury, vs controls, p=0.050 (Colistin, compound 1), p=0.073 (compound 8)), the “Re-epithelialization and granulation tissue” value is “significantly enhanced”. Also, the “closure of P. aeruginosa infected skin wounds” value in [6] (topical, each alternate day, day 13, compounds 100µM / 100µg /ml, Colistin 4µg/ml) is given as “complete closure”.
